Source: US6977264B2, “Substituted piperidines and methods of use” (Amgen Inc., priority 2001, dated 2005)
Counter-ions that a name gives are not always drawn.

Row | melting point | SMILES
1 | 181 °C (dec.) | CS(=O)(=O)Nc1ccccc1C1CCN(C(=O)[C@@H](Cc2ccc(Cl)c(Cl)c2)NC(=O)[C@@H]2Cc3ccccc3CN2)CC1 (as salt: HCl) [Example 10, ((3S)(3-1,2,3,4-Tetrahydroisoquinolyl))-N-[(1R)-1-[(3,4-dichlorophenyl)methyl]-2-(4-{2-[(methylsulfonyl)-amino]phenyl}piperidyl)-2-oxoethyl]carboxamide]
2 | 190 to 200 °C | CS(=O)(=O)N(CC1CC1)c1ccccc1C1CCN(C(=O)[C@@H](Cc2ccc(Cl)cc2)NC(=O)[C@@H]2Cc3ccccc3CN2)CC1 (as salt: HCl) (hydrate or solvate) [Example 11, N-[(1R)-1-[(4-Chlorophenyl)methyl]-2-(4-{2-[(cyclopropylmethyl)-(methylsulfonyl)amino]-phenyl}piperidyl)-2-oxoethyl]((3S)(3-1,2,3,4-tetrahydroisoquinolyl))carboxamide]
3 | 178 °C (dec.) | Cn1ccn(-c2ccccc2C2CCN(C(=O)[C@@H](Cc3ccc(Cl)cc3)NC(=O)[C@@H]3Cc4ccccc4CN3)CC2)c1=O (as salt: HCl) [Example 17, ((3S)(3-1,2,3,4-Tetrahydroisoquinolyl))-N-((1R)-1-[(4-chlorophenyl)methyl]-2-{4-[2-(3-methyl-2-oxo(4-imidazolinyl))phenyl]piperidyl}-2-oxoethyl)carboxamide]
4 | 191 °C (dec.) | Cl.O=C(N[C@H](Cc1ccc(Cl)cc1)C(=O)N1CCC(c2ccccc2-n2cc[nH]c2=O)CC1)[C@@H]1Cc2ccccc2CN1
